# Data as given in patent US12528774B2, “Thiosemicarbazone compounds and uses thereof” (The Regents of the University of California, priority 2019, dated 2026).
# Several values for one entry are separate records, joined by “and”; a condition that tells them apart may be missing. Equal values may be shown once. Read-outs that look alike come from different tables or passages of the source.
# Experiments:
# MIAPACA2 cells = assay: Proliferation assay (CellTiter-Glo, 72 h) in MIAPACA2 cells; format: cell-based, human; details: for IC90: Homo sapiens, MIA PaCa-2, 72 h, MIAPACA2, 72 h
# Description: IC90 values against MIAPACA2 cells was first determined in normal cell culture conditions (DMEM media and 10% FBS). Compounds were separated into three series (4′ primary amines, 4′ secondary amines, 4′ tertiary amines) to reflect the relative degrees of 4′ amine methylation. […] (Refs 41, 42).
# HCT compounds are known to be copper chelators. (Ref. 32). To test whether the compounds described herein were similarly potentiated, the IC90 (+Cu IC90) values were determined against MIAPACA2 cells in media supplemented with physiologically relevant levels of copper (DMEM media+10% FBS+20 μM CuCl2). MIAPACA2 cells were treated with the indicated HCT±20 μM Cu(II) for 72 hours, then cell viability was measured with CellTiter-Glo to determine IC90 values.
# (§1) Proliferation assay: Cells were plated in 384-well plates (500 cells/well for adherent cell lines in 30 μl volume). Drugs were serially diluted to the desired concentrations and an equivalent volume of DMSO was added to vehicle control. Following 72 h incubation, ATP content was measured using CellTiter-Glo reagent according to manufacturer's instructions (Promega, CellTiter-Glo Luminescent Cell Viability Assay), and analyzed by SpectraMax luminometer (Molecular Devices). IC50 and IC90 values, concentrations required to inhibit proliferation by 50% and 90% respectively compared to DMSO treated cells, were calculated using Prism 6.0 h (Graphpad Software).
# as §1, with “assay.” for “assay:”, “Software). The 430-member protein kinase inhibitor library used for the chemical genomics screen was purchased from Selleckchem, Catalog No. L1200.” for “Software).”
# [1] = tested on: PDAC (MIAPACA2, CFPAC-1) and PC (C4-2) cell lines; assay: Cell death assays (Annexin V/PI, trypan blue) of HCT13 with ATR inhibition; format: cell-based; details: ATRi 250 nM VE-822, Cu(II) 20 μM, 72 h
# Description: FIGS. 4A-4G show the chemical genomics screen identifying the replication stress response pathway as an actionable co-dependency of HCT13-treated cells. FIG. 4A: experimental design of a synthetic lethality screen using a library of protein kinase inhibitors against HCT13-treated cells in the presence of Cu(II) (20 μM). FIG. 4B: radar plot of screen results. FIG. 4C: z-score values for kinase inhibitors within the DNA damage response/replication stress response (DDR/RSR) pathway module. FIG. 4D: representative immunoblot of replication stress and cell death biomarkers in MIAPACA2 PDAC cells treated with HCT13 (10 nM)+Cu(II) (20 μM). […] (mean±SD, n=2, one-way ANOVA corrected for multiple comparisons by Bonferroni adjustment, * P<0.05; ** P<0.01; *** P<0.001; **** P<0.0001).
# FIGS. 6A-6C provide the identification of resistance mechanisms to HCT13 using a synthetic lethality screen. […] (mean±SD, n=2, one-way ANOVA corrected for multiple comparisons by Bonferroni adjustment, * P<0.05; ** P<0.01; *** P<0.001; **** P<0.0001). […]
# Viability/Apoptosis assay: Viable cells were measured by Trypan blue staining using vi-cell counter (Beckman Coulter, CA, USA). […]
smiles,measurement,setting,value
"CN(C)C(=S)N/N=C/c1nccc2cc(F)ccc12 (mixture of isomers) [HCT13, (E)-2-((6-Fluoroisoquinolin-1-yl)methylene)-N,N-dimethylhydrazine-1-carbothioamide and (Z)-2-((6-Fluoroisoquinolin-1-yl)methylene)-N,N-dimethylhydrazine-1-carbothioamide]",increase in potency under copper supplementation versus non-copper-supplemented IC90,MIAPACA2 cells; 20 μM CuCl2,greater than 5 fold
same,antiproliferative potency with Cu(II) supplementation,"MIAPACA2 cells; 72 h, Cu(II) 20 μM",highest
same,IC90,"MIAPACA2 cells; DMEM + 10% FBS + 20 μM CuCl2, read-out: +Cu(II) IC90",21.6 nM
same,IC90,"MIAPACA2 cells; DMEM + 10% FBS, no copper supplementation, read-out: IC90",110 nM
same,potency relative to non-methylated analog HCT3,MIAPACA2 cells; IC90 without copper,~50 fold
same,potency relative to non-fluorinated analog,"MIAPACA2 cells; IC90 without copper, analog of same 4′ amine series (HCT1, HCT6 or HCT11)",~250 fold and ~270 fold
same,interaction with ATR inhibition (cell death),[1],synergistic interaction
